We go through 14 compounds from patent publication US5389641A, “Fused heterocyclic compounds, having angiotensin II antagonistic activity” (Takeda Chemical Industries, Ltd., priority 1991, dated 1995).

Test [1] deals with T1, AII receptor (Bos taurus, UniProt P25104).
T1 construct: An AII receptor membrane fraction was prepared from bovine adrenal cortex; from tissue; host or cells: bovine adrenal cortex, membrane fraction
T1 sequence (P25104 1-359): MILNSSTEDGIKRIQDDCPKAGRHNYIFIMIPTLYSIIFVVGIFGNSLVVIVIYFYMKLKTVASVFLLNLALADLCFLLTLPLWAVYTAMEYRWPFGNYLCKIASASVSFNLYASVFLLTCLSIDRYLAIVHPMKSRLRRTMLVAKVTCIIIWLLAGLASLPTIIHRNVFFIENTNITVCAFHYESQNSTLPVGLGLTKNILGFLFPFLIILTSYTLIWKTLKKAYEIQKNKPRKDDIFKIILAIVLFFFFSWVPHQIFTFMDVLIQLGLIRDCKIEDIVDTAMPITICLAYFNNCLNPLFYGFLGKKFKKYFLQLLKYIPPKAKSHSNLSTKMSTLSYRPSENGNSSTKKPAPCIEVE
Put plainly: Inhibition of binding of [125I]-angiotensinII to AII receptor (radioreceptor assay). Particulars: 1 h, membrane fraction from bovine adrenal cortex, room temperature, one hour; for inhibition at 1 µM: 10^-6 (M); for inhibition at 0.1 µM: 10^-7 (M). The protocol: An experiment of inhibition on the binding of angiotensinII (AII) to AII receptor was conducted by modifying the method of Douglas et al. [Endocrinology, 102, 685-696 (1978)]. An AII receptor membrane fraction was prepared from bovine adrenal cortex.
The compound of the present invention (10 ^-6 M or 10^-7 M) and [^125 I]-angiotensinII ([^125 I]-AII) (1.85 kBq/50 μl) were added to the receptor membrane fraction, and the mixture was incubated at room temperature for one hour. The receptor-bound and free [^125 I]-AII were separated through a filter (Whatman GF/B filter), and the radioactivity of [^125 I]-AII bound to the receptor was measured.

For test [2] the following is noted: reported in literature; cited from earlier work.

As to `CCc1cc2c(=O)c3cccc(C(=O)O)c3n(Cc3ccc(-c4ccccc4-c4nnn[nH]4)cc3)c2s1` [Example 3, 2-Ethyl-4-oxo-9-[[2'-(1H-tetrazol-5-yl)biphenyl-4-yl]methyl]-4,9-dihydrothieno[2,3-b]quinoline-8-carboxylic acid], in test [1], the inhibition (in general, the change of the read-out against control, counted positive when it falls) at 1 µM came to 49% and the inhibition at 0.1 µM was 12%.
The matching figures for `CCCc1nc2c(C)cnc(C(=O)O)c2n1Cc1ccc(-c2ccccc2-c2nnn[nH]2)cc1` [Example 2, 2-Propyl-7-methyl-3-[[2'-(1H-tetrazol-5-yl)biphenyl-4-yl]methyl]-3H-imidazo[4,5-c]pyridine-4-carboxylic acid]: 92% and 54%.
The matching figures for `CCCCc1nc2cccc(C(=O)O)c2n1Cc1ccc(-c2ccccc2-c2nnn[nH]2)nc1` [Example 21, 2-Butyl-1-[[2-[2-(1H-tetrazol-5-yl)phenyl]pyridin-5-yl]methyl]benzimidazole-7-carboxylic acid]: 70% and 26%.
On the same counts, the results for `CCCc1cn2ncc(C(=O)O)c2n1Cc1ccc(-c2ccccc2-c2nn[nH]n2)cc1` [Example 6, 5-Propyl-4-[[2'-(1H-tetrazol-5-yl)biphenyl-4-yl]methyl]-imidazo[1,2-b]pyrazol-3-carboxylic acid] are 91% and 60%.
In test [1], `CCCc1nn2ncc(C(=O)OCOC(=O)C(C)(C)C)c2n1Cc1ccc(-c2ccccc2-c2nnn[nH]2)cc1` [Example 20, Pivaloyloxymethyl 2-propyl-1-[[2'-(1H-tetrazol-5-yl)biphenyl-4-yl]methyl]-1H-pyrazolo[1,5-b][1,2,4]triazole-7-carboxylate] registered an inhibition at 1 µM of 61% and an inhibition at 0.1 µM of 21%.
The matching figures for `CCc1cc2c(=O)c3cccc(C(=O)OCOC(=O)C(C)(C)C)c3n(Cc3ccc(-c4ccccc4-c4nnn[nH]4)cc3)c2s1` [Example 14, Pivaloyloxymethyl 2-ethyl-4-oxo-9-[[2'-(1H-tetrazol-5-yl)biphenyl-4-yl]methyl]-4,9-dihydrothieno[2,3-b]quinoline-8-carboxylate]: 69% and 31%.
For the compound `CNCC(=O)N[C@@H](CCCN=C(N)N)C(=O)N[C@H](C(=O)N[C@@H](Cc1ccc(O)cc1)C(=O)N[C@H](C(=O)N[C@@H](Cc1cnc[nH]1)C(=O)N1CCC[C@H]1C(=O)N[C@@H](C)C(=O)O)C(C)C)C(C)C` [saralasin], the angiotensinII antagonist activity result in test [2] is given as “potent”.
Turning to `CCCCc1nc2c(C)cnc(C(=O)O)c2n1Cc1ccc(-c2ccccc2-c2nnn[nH]2)cc1` [Example 1, 2-Butyl-7-methyl-3-[[2'-(1H-tetrazol-5-yl)biphenyl-4-yl]methyl]-3H-imidazo[4,5-c]pyridine-4-carboxylic acid], in test [1], at 1 µM the inhibition was 92% and the inhibition at 0.1 µM was found to be 63%.
In test [1], `CCCCc1nc2cccc(C(=O)O)c2n1Cc1ccc2c(=O)n(-c3ccccc3-c3nnn[nH]3)cnc2c1` [Example 26, 2-Butyl-1-[[4-oxo-3-[2-(1H-tetrazol-5-yl)phenyl]-3,4-dihydroquinazolin-7-yl]methyl]benzimidazole-7-carboxylic acid] came in with an inhibition at 1 µM of 80% and an inhibition at 0.1 µM of 39%.
On the same counts, the results for `CCc1cc2c(=O)c3cccc(C(=O)OC(C)OC(=O)OC4CCCCC4)c3n(Cc3ccc(-c4ccccc4-c4nnn[nH]4)cc3)c2s1` (stereo not drawn) [Example 15, 1-(Cyclohexyloxycarbonyloxy)ethyl 2-ethyl-4-oxo-9-[[2'-(1H-tetrazol-5-yl)biphenyl-4-yl]methyl]-4,9-dihydrothieno[2,3-b]quinoline-8-carboxylate] are 19% and 1%.
On the same counts, the results for `CCOc1nc(C(=O)O)c2c(n1)nc(OCC)n2Cc1ccc(-c2ccccc2-c2nnn[nH]2)cc1` [Example 13, 2,8-Diethoxy-7-[[2'-(1H-tetrazol-5-yl)biphenyl-4-yl]methyl]purine-6-carboxylic acid] are 49% and 20%.
The matching figures for `CCCCc1nc2cccc(C(=O)O)c2n1Cc1ccc(-n2cccc2-c2nnn[nH]2)cc1` [Example 7, 2-Butyl-1-[[4-[2-(1H-tetrazol-5-yl)-1-pyrrolyl]phenyl]methyl]benzimidazole-7-carboxylic acid]: 67% and 27%.
Regarding `CCCc1nn2ncc(C(=O)O)c2n1Cc1ccc(-c2ccccc2-c2nnn[nH]2)cc1` [Example 11, 2-Propyl-1-[[2'-(1H-tetrazol-5-yl)biphenyl-4-yl]methyl]-1H-pyrazolo[1,5-b][1,2,4]triazole-7-carboxylic acid], in test [1], at 1 µM the inhibition was 86% and 0.1 µM produced 54% inhibition.
The matching figures for `CCCc1cc2cccc(C(=O)O)c2n1Cc1ccc(-c2ccccc2-c2nnn[nH]2)cc1` [Example 17, 2-Propyl-1-[[2'-(1H-tetrazol-5-yl)biphenyl-4-yl]methyl]indole-7-carboxylic acid]: 39% and 0%.
